The text below walks through data of paper PMC10418599, “Quercetins, Chlorogenic Acids and Their Colon Metabolites Inhibit Colon Cancer Cell Proliferation at Physiologically Relevant Concentrations” (International Journal of Molecular Sciences, 2023).

In series [1] the test system is Caco-2 cell line. As to the kind of experiment: in vitro. In kind it is in vitro ADME. The conditions noted are these: human; for Concentration of substrate in cell medium: 50 μmol/L. The method, then: (§1) To analyze the metabolism of phenolic compounds by Caco-2 and SW480 cells, the cell culture media were withdrawn after 0, 24, 48 and 72 h of incubation. Phenolic compounds were extracted from the culture media by following the procedure reported in Sala et al.. Briefly, 100 μL of cold methanol was mixed with 100 μL of cell media and vortexed for 1 min. The mixture was then centrifuged at 10,000× g (4 °C, 5 min) and the supernatant was injected, after appropriate dilution, in an ultra-high-performance liquid chromatography high-resolution mass spectrometry system (UHPLC-HR-MS).
(§2) The HR-MS system consisted of a UHPLC Ultimate 3000 separation module, equipped with a C18 column (Acquity UPLC HSS C18 reversed phase, 2.1 × 100 mm, 1.8 μm particle size, Waters, Milan, Italy) and coupled with a Q Exactive Hybrid Quadrupole-Orbitrap Mass Spectrometer (Thermo Scientific, San Jose, CA, USA). Mobile phases consisted of a mixture of water containing formic acid (0.1%) (mobile phase A) and acetonitrile containing formic acid (0.1%) (mobile phase B). The gradient began at 1% B, reaching 40% B over 20 min. To wash the column, the mobile phase B concentration was raised to 99% over 6 min and kept at 99% for 3 min before returning to the initial conditions. The MS and MS/MS conditions are fully described in Martini et al..
(§3) Quantification was carried out by building external calibration curves with the available standard compounds.

A short description of series [2]: in vitro. In kind it is in vitro ADME. The conditions noted are these: human. The procedure:
as §1, §2, §3

The test system of series [3] is Caco-2 cell line. As to the kind of experiment: Anti-proliferative assay (MTS cell proliferation assay). In kind it is cell-based, Human. The conditions noted are these: Homo sapiens, maximum tested concentration 200 μmol/L. The method, then: (§4) Human colon cancer Caco-2 and SW480 cell lines were cultured and grown as previously reported. […] Incubation was carried out for 24, 48 and 72 h. Data were compared with a control solution containing 0.5% DMSO in cell medium and representing 100% proliferation. In addition, six different mixes were prepared to simulate the simultaneous presence of parent phenolic compounds and metabolites by mimicking the possible human inter-individual variability in colon metabolism of phenolic compounds. Two sets of mixes were prepared to consider the colon metabolism of quercetins and chlorogenic acids. […] For each set of mixtures (QUE and CGA mixtures), three different mixes were formulated. One set of mixes mimicked the low-producers metabotype and contained 90% parent compounds and 10% metabolites (mixes QUE-LP and CGA-LP). Another set of mixes was prepared to simulate the high-producers metabotype and contained 10% parent compounds and 90% metabolites (mixes QUE-HP and CGA-HP). Finally, a third set of mixes was prepared with equimolar amounts of all the compounds (mixes QUE-EQ and CGA-EQ). […] Cell proliferation was assessed by the MTS assay as previously described. […] The IC50 values were calculated through non-linear regression analysis by plotting the base-10 logarithm of the phenolic compound concentration vs. the percentage of inhibition.

Series [4] relates to SW480 cell line. The series is described as above. In kind it is cell-based, Human. The conditions noted are these: for IC50: Homo sapiens, maximum tested concentration 200 μmol/L. The procedure:
as §4

Series [5] deals with SW480 cell line. Description: Cell metabolism of phenolic compounds (UHPLC-HR-MS analysis of cell media). In kind it is in vitro ADME, Human. The conditions noted are these: for Concentration of substrate in cell medium: initial 50 μmol/L. The method, then: as §1, §2, §3
Assay in series [6]: as above
In kind it is in vitro ADME, Human. The conditions noted are these: human, SW480 cells; SW480, 72 h. The method, then:
as §1, §2, §3

The conditions of series [7]: after raspberry supplementation; ref 49 (Gill et al.); cited from earlier work.
For series [8], the system named is SW480 cells. As to the kind of experiment: Cell cycle analysis by flow cytometry. In kind it is cell-based, Human. The conditions noted are these: 72 h, concentration equal to the IC50 value, vs control. The method, then:
Cell cycle analysis was carried out in both Caco-2 and SW480 cell lines as previously reported by Nicoletti et al.. Cells were seeded in 6-well plates at a density of 4000 and 8000 cells/cm^2 for Caco-2 and SW480, respectively.
After 72 h of incubation, the cells were washed with PBS, detached from the 6-well plates with 500 μL of trypsin and resuspended in 1000 μL of medium. Subsequently, they were centrifuged at 3500 rpm for 5 min. After removing the supernatant, the pellet was resuspended with 400 μL of Nicoletti’s solution (sodium citrate 0.1%, Triton X-100 0.1% and 20 μg/mL propidium iodide). After 15 min of incubation at 4 °C in the dark, cell cycle analysis was performed with an Epics XL MCL flow cytometer (Beckman Coulter, Brea, CA, USA).
The data were compared with a control solution containing 0.5% DMSO in the cell medium.
For orientation: A flow cytometer gives signals particle by particle.

On the set-up of series [9]: method as in PMID 33350133, doi:10.1002/fft2.50. The conditions noted are these: of the ingested dose; cited from earlier work.

A value given as a limit tells only on which side of the number the result lay.

The IC50 is the point on the concentration scale where inhibition reaches its midpoint. The low end stands for inhibition by little substance, the high end for a need for much substance.

With `O=C(O)Cc1cccc(O)c1` [3-(3′-Hydroxyphenyl)acetic acid, 3-(3′-hydroxyphenyl)acetic acid], the “Concentration of substrate in cell medium” value amounted to 48.83 ± 0.85 µM in series [1] (24 h); 47.02 ± 0.39 µM in [1] (48 h); 43.17 ± 0.06 µM in series [1] (72 h); 42.23 ± 0.55 µM in [5] (SW480, 24 h); 42.81 ± 0.10 µM in [5] (SW480, 48 h); 39.28 ± 0.85 µM in series [5] (SW480, 72 h). Further, the recovery at 72 h in series [2] and in series [6] was greater than 80% each time. For the same molecule, the IC50 in [3] (Caco-2, 48 h of incubation) was greater than 200 µM; in series [3] (Caco-2, 72 h of incubation), greater than 200 µM; in series [4] (SW480, 48 h of incubation), greater than 200 µM; in series [4] (SW480, 72 h of incubation), 99.6 ± 4.8 µM. Further, in [7], the “Maximum value in human fecal water” value is 327 µmol/L.

For the molecule `O=c1c(O)c(-c2ccc(O)c(O)c2)oc2cc(O)cc(O)c12` [Quercetin, quercetin], the “Decrease in cell medium concentration” value in [1] (24 h) came to 99.5%. In addition, the “Concentration of substrate in cell medium” value in series [1] (24 h) came out at 0.61 ± 0.01 µM; in series [1] (48 h), 0.29 ± 0.01 µM; in series [1] (72 h), 0.52 ± 0.02 µM; in series [5] (SW480, 24 h) it was 47.39 ± 1.22 µM; in [5] (SW480, 48 h), 40.37 ± 1.20 µM; in [5] (SW480, 72 h), 14.83 ± 0.84 µM. In addition, the IC50 in [3] (Caco-2, 48 h of incubation) was greater than 200 µM; in series [3] (Caco-2, 72 h of incubation), 116 ± 4.9 µM; in series [4] (SW480, 48 h of incubation) it was 89.2 ± 3.1 µM; in series [4] (SW480, 72 h of incubation), 58.2 ± 2.7 µM. Besides, the “Decrease in IC50 value from 48 to 72 h” value in series [4] (SW480) was 1.5 fold. Moreover, the “Increase in the number of SW480 cells in the S phase” value in series [8] is recorded as 3.1 times. Further, the “Concentration of newly formed metabolite” value amounted to 52.70 ± 2.24 µM in series [5] (SW480, 24 h, substrate Quercetin-4′-O-glucoside 50 μmol/L); 0.04 ± 0.00 µM in series [5] (SW480, 48 h, substrate Quercetin-3-O-glucoside-4′-O-glucoside 50 μmol/L); 36.89 ± 0.52 µM in [5] (SW480, 48 h, substrate Quercetin-4′-O-glucoside 50 μmol/L); 0.07 ± 0.00 µM in [5] (SW480, 72 h, substrate Quercetin-3-O-glucoside-4′-O-glucoside 50 μmol/L); 12.78 ± 0.41 µM in series [5] (SW480, 72 h, substrate Quercetin-4′-O-glucoside 50 μmol/L). The “Absorption in the small intestine” value in series [9] was “about 20%”.
